# Measured values: patent US20240277705A1, “DOSAGE REGIMENS FOR ECUBECTEDIN” (PHARMA MAR S.A., priority 2021, published 2024)
# Tests used:
# [1] = tested on: RXF 486L (hypernephroma, poorly differentiated); experiment: Propidium iodide monolayer cell proliferation assay, RXF 486L; format: cell-based, human; conditions: four days of treatment
# Method: Working stock solution of PM14 was prepared in DMSO at a concentration of 1.042 mM and small aliquots were stored at −20° C. On each day of an experiment, a frozen aliquot of the working stock solution was thawed and stored at room temperature prior to and during treatment.
# Subsequent dilutions were done with complete RPMI 1640 cell culture medium. DMSO stock solutions were first diluted 1:22 (corresponding to 4.5% v/v DMSO). Starting with this solution, serial dilutions in half-log steps with cell culture medium were done using an intermediate dilution plate. Finally, 10 μl taken from the intermediate dilution plate were transferred to 140 μl/well of the cell culture plate. […]
# Cell proliferation assay: A modified propidium iodide (PI) based monolayer assay was used to assess the anti-cancer activity of the compounds (Dengler WA, Schulte J, Berger DP, Mertelsmann R, Fiebig HH, Anti-Cancer Drugs 1995, 6: 522-532). Briefly, cells were harvested from exponential phase cultures, counted and plated in 96 well flat-bottom microtiter plates at a cell density of 4,000 to 30,000 cells/well dependent on the cell line's growth rate. […] After an incubation period of 1-2 hours at room temperature, fluorescence (FU) was measured using the Enspire Multimode Plate Reader (excitation A=530 nm, emission A=620 nm) to quantify the amount of attached viable cells. […]
# [2] = tested on: MRI-H-121 xenografts (human renal carcinoma tumor line); experiment: MRI-H-121 mouse xenograft study, antitumor activity; format: in vivo, mice; conditions: 1.25 mg/kg i.v. days 0, 7 and 14
# Method: Compounds: Vials of off-white lyophilized PM14 cake were stored at −20° C. The cake was reconstituted with 2 ml of water for injection (Sigma-Aldrich, Co) to a concentration of 0.5 mg/ml. Further dilutions were made with a 5% glucose solution for injection/USP (Baxter, Inc.). A clear PM14 solution was obtained.
# Animals: Female athymic nu/nu mice between 4 to 6 weeks of age were purchased from Envigo (Barcelona, Spain).
# Tumor line: MRI-H-121 is a human renal carcinoma tumor line, originally obtained from the DCT Tumor Bank. Developed by Dr. A. E. Bogden, Mason Research Institute MA and maintained as a serial transplanted tumor line in athymic nude mice. Original tissue came from a patient at U. of Mass. Med. Center.
# Study groups: Briefly, 4 to 6 week-old female athymic nu/nu mice were subcutaneously implanted into their right flank with a MRI-H-121 tissue from serial transplanted donor mice. Tumors were removed from donor animals and were cut into fragments (3 mm^3). Tissue was debrided of membrane, hemorrhagic and necrotic areas, placed in Matrigel™ (Corning Incorporated Life Sciences) and subcutaneously implanted. Recipient mice were anesthetised by inhalation of isoflurane, a small incision into the skin of the back was made and one tumor fragment per mouse was transplanted with tweezers. The mice were monitored daily.
# Tumor bearing animals were randomly allocated into 2 groups (N=10/group): PM14 administered at 1.25 mg/kg and placebo. All treatments were intravenously administered once a week for 3 consecutive weeks (days 0, 7 and 14).
# Tumor measurements were determined using digital calipers (Fowler Sylvac, S235PAT). The formula to calculate volume for a prolate ellipsoid was used to estimate tumor volume (mm^3) from 2-dimensional tumor measurements:
# Where, a: length (longest diameter) and b: width (shortest diameter) in mm of a tumor.
# Tumor volume and animal body weights were measured 2-3 times per week starting from the first day of treatment.
# When tumors reached ca. 190 mm^3, tumor bearing animals were randomly allocated into the following experimental groups (N=10/group):
# Treatments were initiated on Day 0 and were intravenously administered once per week for 3 consecutive weeks (days 0, 7 and 14).
# Tumor volume data from groups following the 1st, 2nd, 3rd, 4th and 5th weeks were compared using a two tailed Mann Whitney U test. The data are presented as medians and interquartile range (IQR).
# Complete tumor regression (CR) was defined when tumor volume <63 mm^3 for 2 or more consecutive measurements. Survival statistical differences between groups were assessed by Kaplan Meier curves applying the log rank test.
structure (smiles),measurement,setting,value
"COc1c(C)cc2c(c1O)[C@@H]1[C@@H]3[C@@H]4SC[C@]5(N[C@H](CO)Cc6c5[nH]c5ccccc65)C(=O)OC[C@@H](c5c6c(c(C)c(OC(C)=O)c54)OCO6)N3[C@@H](O)[C@H](C2)N1C [PM14, ECUBECTEDIN]",IC50,"[1]; Homo sapiens, 96 h, read-out: IC50, μM (geometric mean)",0.002 µM
same,"IC70, μM (geometric mean)",[1],0.002 µM
same,Median survival time,[2],32.5 days
same,antitumor activity,[2],very strong antitumor activity
same,"TV, mm^3 median",[2]; Day 0,190.8 mm^3
same,"TV, mm^3 median","[2]; Day 7, 1.25 mg/kg",401.2 mm^3
same,"TV, mm^3 median","[2]; Day 14, 1.25 mg/kg",472.7 mm^3
same,"TV, mm^3 median","[2]; Day 21, 1.25 mg/kg",743.8 mm^3
same,"TV, mm^3 median","[2]; Day 28, 1.25 mg/kg",1392 mm^3
same,"TV, mm^3 median","[2]; Day 35, 1.25 mg/kg",2015 mm^3
